# Experiments:
# hESC-derived ECs = test: 7-Cyclo in PDMS microfluidic system, static or flow (morphology, qRT-PCR, ELISA); format: cell-based, human
# Method: For the 7-cyclo studies the flow experiments were carried out in a microfluidic system developed by us. The microfluidic device was obtained using a cylindrical mold of 20 Gauge. Polydimethylsiloxane (PDMS) (Sylgard 184 Silicone elastomere base) was mixed at a 10:1 ratio (w/w) with curing agent (Sylgard 184 Silicon Elastomer Curing Agent) and the solution was poured onto a mold (20 gauge needle laid on a plastic dish) and cured at 80° C. for about 3 h. The microchannel was cut to 0.5 cm length (900 μm inner diameter) and treated with Plasma Clean (Electronic Diener Femto Plasma Surface Technology version 5) for 2 min with argon gas (2 mBar) before immersing it in a solution of 0.1% gelatin. HESC-derived ECs (20×10^6 cells/mL) or HUAECs were seeded on PDMS microchannels (3.18 μL cell suspension per channel) devices and grown until confluence. Using a programmed IBIDI pump with positive pressure, the cell monolayer was perfused with EGM-2 medium for 7 days; shear stress of 20 dyne/cm2 (. After 7 days the flow was stopped, the cells imaged, and then stained or collected for posterior gene analysis. Medium was collected for ELISA assays. In some experiments, cells were cultured in medium supplemented with 1 μM 7-cyclo (Sigma) for an additional time of 24 h, under shear stress. Static controls were carried out in the microfluidic system but without flow.
# Evaluation of the levels of vascular injury by specific markers. ELISA kits analyzed supernatants collected from the shear stress experiments for vWF and vWFpp (Gen-Probe GTI Diagnostic) and ADMA (Enzo Life Sciences), according to manufacturer's recommendations.
# To evaluate the effects of 7-Cyclo in flow conditions, hESC-derived ECs were cultured in a poly(dimethylsiloxane) (PDMS) microfluidic system with cylindrical channels for 7 days at 20 dyne/cm2 (FIG. 5A). ECs were able to form a confluent monolayer in the entire inner surface of the channel after 48 h. At day 7, cells were exposed to EGM-2 medium supplemented with 1 μM of 7-Cyclo for 24 h, and finally analyzed at morphological, genetic and secretion levels. […] Importantly, hESC-derived ECs cultured under flow conditions in the presence of 7-Cyclo secrete higher levels of ADMA (2.5 fold) and vWFpp:vWF (1.6 fold) than without the drug, and significant higher levels of ADMA than HUAECs.
# [1] = tested on: mouse aortic endothelial cells (mAEC); test: Gene expression in mouse aortic endothelial cells after 7-Cyclo; format: cell-based
# Method: To further validate the effects of 7-Cyclo at the embryonic vasculature, mouse embryonic ECs were incubated at day 12.5 (mAEC E12.5) and postnatal day 1 (p1) with 7-Cyclo (1 μM) for 24 h. […] In contrast, 7-Cyclo has no effect in p1 ECs. The degree of action of 7-Cyclo in mAEC E12.5 is similar to the one identified in hESC-derived ECs (FIG. 5C).
# Total RNA from experimental groups was isolated using a protocol with TRIzol (Invitrogen) and RNeasy Minikit (Qiagen, Valencia). cDNA was prepared from 1 μg total RNA using Taqman Reverse transcription reagents (Applied Biosystems, CA). Quantitative PCR (qPCR) was performed using Power SYBR Green PCR Master Mix and the detection using an ABI PRISM 7500 Fast System (Applied Biosystems). Quantification of target genes was performed relative to the reference GAPDH gene: relative expression=2^[−(Ctsample^−CtGADPH^)]. The mean minimal cycle threshold values (Ct) were calculated from 4 reactions. In some cases, gene expression in each experimental group was normalized to the relative gene expression found in HUVECs, HUAECs or undifferentiated hESCs. Primer sequences are published in Table 7 of expanded materials and methods.
# Xenopus embryos = details: 20 μM; cited from earlier work
# [2] = tested on: microvessels formed by HUAECs; test: Matrigel assay, disruption of vascular networks; format: cell-based, human; details: 1 μM, 20 h, on top of Matrigel
# Method: (§1) To test the 7-Cyclo properties in the disruption of vascular networks, microvessels of hESC-derived ECs, HUAECs and HAECs were formed on top of Matrigel and then exposed to the drug for 20 h.
# (§2) A 24-well plate was coated with Matrigel (0.4 mL, BD Biosciences) per well and incubated at 37° C. for 30 min. Cells were seeded on top of the polymerized Matrigel at a concentration of 1×10^5 cells per 300 μL of EGM-2 medium. After 1 h of incubation at 37° C., an extra 1 mL of EGM-2 was added. After 12 h, medium supplemented with 7-Cyclo (0, 0.1 or 1 μM) was added. Cord formation was evaluated by phase contrast microscopy (Carl Zeiss International, Germany), at time 0, 3 h and 20 h after 7-Cyclo addition.
# [3] = tested on: microvessels formed by HAECs; test: Matrigel assay, disruption of vascular networks; format: cell-based, human; details: 1 μM, 20 h, on top of Matrigel
# Method: as §1, §2
# [4] = tested on: microvessels of hESC-derived ECs; test: Matrigel assay, disruption of vascular networks; format: cell-based, human; details: 1 μM, 20 h, on top of Matrigel
# Method: as §1, §2
# [5] = flow 20 dyne/cm2, 1 μM for 24 h, versus static conditions
# [6] = flow conditions, 1 μM for 24 h, ELISA
compound,measurement,setting,value
"Nc1ncnc2c1c(-c1ccc(Oc3ccccc3)cc1)cn2C1CCCC1 [7-Cyclo, 7-cyclopentyl-5-(4-phenoxy)phenyl-7H-pyrrolo[2,3-d]pyrimidin-4-ylamine]",cell morphology,"hESC-derived ECs; flow 20 dyne/cm2, 1 μM for 24 h",significant alterations
same,expression of DDAH1 and DDAH2,hESC-derived ECs; [5],statistically lower levels
same,"expression of inflammatory genes ICAM-1, E-selectin, HO-1 and eNOS",hESC-derived ECs; [5],statistically higher levels
same,secreted ADMA versus without the drug,hESC-derived ECs; [6],2.5 fold
same,secreted vWFpp:vWF versus without the drug,hESC-derived ECs; [6],1.6 fold
same,"inflammation, oxidative stress sensing, vascular modulation and vascular injury sensing genes","[1]; mAEC at E12.5, 1 μM for 24 h, versus cells without treatment",statistically up-regulated
same,effect on gene expression,"[1]; postnatal day 1 (p1) ECs, 1 μM for 24 h",no effect
same,effect on vasculature of Xenopus embryos,Xenopus embryos,interfere with angiogenic sprouting and disrupt blood vessel formation
same,effect on network length and number of sprouts in microvessels,[2],negligible effect
same,effect on network length and number of sprouts in microvessels,[3],negligible effect
same,network length and number of sprouts in microvessels,[4],statistically significant reduction
